Values of other authors, collected in patent US20040223971A1, “Composition and uses of galectin antagonists” (GlycoGenesys, Inc., priority 2003, published 2004).

Experiments:
BT549 cells = BT549 cells without detectable galectin-3
[1] = tested on: galectin-3 transfected BT549 cells

O=c1c(-c2ccc(O)cc2)coc2cc(O)cc(O)c12 [genistein]
apoptosis induction (BT549 cells): effectively induces apoptosis
cell cycle arrest / apoptosis [1]: cell cycle arrest at the G(2)/M phase takes place without apoptosis induction
